# Data from PubChem BioAssay (NCI).
#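 48-hour exposure; five concentrations; linearly interpolated endpoints. TGI marks complete inhibition of growth.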
# What was measured:
# Test in all cases: inhibition of tumour cell growth, NCI panel, 48 h
# 786-0 renal = tested on: 786-0 renal
# A498 renal = tested on: A498 renal
# A549 NSCLC = tested on: A549 NSCLC
# ACHN renal = tested on: ACHN renal
# CCRF-CEM leukemia = tested on: CCRF-CEM leukemia
# COLO 205 colon = tested on: COLO 205 colon
# DLD-1 colon = tested on: DLD-1 colon
# DMS 114 small cell lung = tested on: DMS 114 small cell lung
# DMS 273 small cell lung = tested on: DMS 273 small cell lung
# HCC-2998 colon = tested on: HCC-2998 colon
# HCT-116 colon = tested on: HCT-116 colon
# HCT-15 colon = tested on: HCT-15 colon
# HL-60(TB) leukemia = tested on: HL-60(TB) leukemia
# HOP-62 NSCLC = tested on: HOP-62 NSCLC
# HOP-92 NSCLC = tested on: HOP-92 NSCLC
# HT29 colon = tested on: HT29 colon
# IGROV1 ovarian = tested on: IGROV1 ovarian
# KM12 colon = tested on: KM12 colon
# KM20L2 colon = tested on: KM20L2 colon
# LOX IMVI melanoma = tested on: LOX IMVI melanoma
# LXFL 529 NSCLC = tested on: LXFL 529 NSCLC
# M14 melanoma = tested on: M14 melanoma
# M19-MEL melanoma = tested on: M19-MEL melanoma
# MALME-3M melanoma = tested on: MALME-3M melanoma
# MOLT-4 leukemia = tested on: MOLT-4 leukemia
# NCI-H226 lung = tested on: NCI-H226 lung
# NCI-H23 lung = tested on: NCI-H23 lung
# NCI-H460 lung = tested on: NCI-H460 lung
# NCI-H522 lung = tested on: NCI-H522 lung
# OVCAR-3 ovarian = tested on: OVCAR-3 ovarian
# OVCAR-4 ovarian = tested on: OVCAR-4 ovarian
# OVCAR-5 ovarian = tested on: OVCAR-5 ovarian
# OVCAR-8 ovarian = tested on: OVCAR-8 ovarian
# RPMI-8226 leukemia = tested on: RPMI-8226 leukemia
# SF-268 CNS = tested on: SF-268 CNS
# SF-295 CNS = tested on: SF-295 CNS
# SF-539 CNS = tested on: SF-539 CNS
# SK-MEL-2 melanoma = tested on: SK-MEL-2 melanoma
# SK-MEL-28 melanoma = tested on: SK-MEL-28 melanoma
# SK-MEL-5 melanoma = tested on: SK-MEL-5 melanoma
# SK-OV-3 ovarian = tested on: SK-OV-3 ovarian
# SN12C renal = tested on: SN12C renal
# SNB-75 CNS = tested on: SNB-75 CNS
# SNB-78 CNS = tested on: SNB-78 CNS
# SR leukemia = tested on: SR leukemia
# TK-10 renal = tested on: TK-10 renal
# U251 CNS = tested on: U251 CNS
# UACC-257 melanoma = tested on: UACC-257 melanoma
# UO-31 renal = tested on: UO-31 renal
# BT-549 breast = tested on: BT-549 breast
# CAKI-1 renal = tested on: CAKI-1 renal
# DU-145 prostate = tested on: DU-145 prostate
# EKVX NSCLC = tested on: EKVX NSCLC
# HS 578T breast = tested on: HS 578T breast
# K-562 leukemia = tested on: K-562 leukemia
# MCF7 breast = tested on: MCF7 breast
# MDA-MB-231 breast = tested on: MDA-MB-231 breast
# MDA-MB-435 = tested on: MDA-MB-435
# MDA-N = tested on: MDA-N
# NCI/ADR-RES ovarian = tested on: NCI/ADR-RES ovarian
# PC-3 prostate = tested on: PC-3 prostate
# RXF 393 renal = tested on: RXF 393 renal
# SNB-19 CNS = tested on: SNB-19 CNS
# SW-620 colon = tested on: SW-620 colon
# T-47D breast = tested on: T-47D breast
# UACC-62 melanoma = tested on: UACC-62 melanoma
structure (smiles),measurement,setting,value
O=C(O)CSc1nnc(COc2ccccc2)n1-c1ccccc1,TGI,786-0 renal,> 100 µM
same,TGI,A498 renal,> 100 µM
same,TGI,A549 NSCLC,> 100 µM
same,TGI,ACHN renal,> 100 µM
same,TGI,CCRF-CEM leukemia,> 100 µM
same,TGI,COLO 205 colon,> 100 µM
same,TGI,DLD-1 colon,> 100 µM
same,TGI,DMS 114 small cell lung,> 100 µM
same,TGI,DMS 273 small cell lung,> 100 µM
same,TGI,HCC-2998 colon,> 100 µM
same,TGI,HCT-116 colon,> 100 µM
same,TGI,HCT-15 colon,> 100 µM
same,TGI,HL-60(TB) leukemia,> 100 µM
same,TGI,HOP-62 NSCLC,> 100 µM
same,TGI,HOP-92 NSCLC,> 100 µM
same,TGI,HT29 colon,> 100 µM
same,TGI,IGROV1 ovarian,> 100 µM
same,TGI,KM12 colon,> 100 µM
same,TGI,KM20L2 colon,> 100 µM
same,TGI,LOX IMVI melanoma,> 100 µM
same,TGI,LXFL 529 NSCLC,> 100 µM
same,TGI,M14 melanoma,> 100 µM
same,TGI,M19-MEL melanoma,> 100 µM
same,TGI,MALME-3M melanoma,> 100 µM
same,TGI,MOLT-4 leukemia,> 100 µM
same,TGI,NCI-H226 lung,> 100 µM
same,TGI,NCI-H23 lung,> 100 µM
same,TGI,NCI-H460 lung,> 100 µM
same,TGI,NCI-H522 lung,> 100 µM
same,TGI,OVCAR-3 ovarian,> 100 µM
same,TGI,OVCAR-4 ovarian,> 100 µM
same,TGI,OVCAR-5 ovarian,> 100 µM
same,TGI,OVCAR-8 ovarian,> 100 µM
same,TGI,RPMI-8226 leukemia,> 100 µM
same,TGI,SF-268 CNS,> 100 µM
same,TGI,SF-295 CNS,> 100 µM
same,TGI,SF-539 CNS,> 100 µM
same,TGI,SK-MEL-2 melanoma,> 100 µM
same,TGI,SK-MEL-28 melanoma,> 100 µM
same,TGI,SK-MEL-5 melanoma,> 100 µM
same,TGI,SK-OV-3 ovarian,> 100 µM
same,TGI,SN12C renal,> 100 µM
same,TGI,SNB-75 CNS,> 100 µM
same,TGI,SNB-78 CNS,> 100 µM
same,TGI,SR leukemia,> 100 µM
same,TGI,TK-10 renal,> 100 µM
same,TGI,U251 CNS,> 100 µM
same,TGI,UACC-257 melanoma,> 100 µM
same,TGI,UO-31 renal,> 100 µM
CC(C)(CO)Nc1c(O)c2c(c(O)c1Cl)C(=O)C=CC2=O,TGI,786-0 renal,2.85 µM
same,TGI,A498 renal,3.36 µM
same,TGI,A549 NSCLC,3.61 µM
same,TGI,ACHN renal,3.08 µM
same,TGI,BT-549 breast,2.24 µM
same,TGI,CAKI-1 renal,3.41 µM
same,TGI,CCRF-CEM leukemia,1.26 µM
same,TGI,COLO 205 colon,2.56 µM
same,TGI,DU-145 prostate,3.35 µM
same,TGI,EKVX NSCLC,3.82 µM
same,TGI,HCC-2998 colon,2.75 µM
same,TGI,HCT-116 colon,3.07 µM
same,TGI,HCT-15 colon,2.22 µM
same,TGI,HL-60(TB) leukemia,0.561 µM
same,TGI,HOP-62 NSCLC,2.95 µM
same,TGI,HOP-92 NSCLC,3.3 µM
same,TGI,HS 578T breast,3.41 µM
same,TGI,HT29 colon,3.4 µM
same,TGI,IGROV1 ovarian,2.92 µM
same,TGI,K-562 leukemia,1.78 µM
same,TGI,KM12 colon,2.78 µM
same,TGI,LOX IMVI melanoma,1.19 µM
same,TGI,M14 melanoma,2.26 µM
same,TGI,MALME-3M melanoma,3.33 µM
same,TGI,MCF7 breast,2.65 µM
same,TGI,MDA-MB-231 breast,3.15 µM
same,TGI,MDA-MB-435,2.38 µM
same,TGI,MDA-N,2.26 µM
same,TGI,MOLT-4 leukemia,3.3 µM
same,TGI,NCI-H226 lung,4.26 µM
same,TGI,NCI-H23 lung,3.37 µM
same,TGI,NCI-H460 lung,4.28 µM
same,TGI,NCI-H522 lung,0.928 µM
same,TGI,NCI/ADR-RES ovarian,3.65 µM
same,TGI,OVCAR-3 ovarian,2.9 µM
same,TGI,OVCAR-4 ovarian,2.92 µM
same,TGI,OVCAR-5 ovarian,3.02 µM
same,TGI,OVCAR-8 ovarian,2.71 µM
same,TGI,PC-3 prostate,3.41 µM
same,TGI,RPMI-8226 leukemia,4.82 µM
same,TGI,RXF 393 renal,3.31 µM
same,TGI,SF-268 CNS,6.03 µM
same,TGI,SF-295 CNS,3.21 µM
same,TGI,SF-539 CNS,2.7 µM
same,TGI,SK-MEL-2 melanoma,4.8 µM
same,TGI,SK-MEL-28 melanoma,3.32 µM
same,TGI,SK-MEL-5 melanoma,2.35 µM
same,TGI,SK-OV-3 ovarian,2.91 µM
same,TGI,SN12C renal,2.91 µM
same,TGI,SNB-19 CNS,3.5 µM
same,TGI,SNB-75 CNS,2.6 µM
same,TGI,SR leukemia,0.782 µM
same,TGI,SW-620 colon,1.37 µM
same,TGI,T-47D breast,4.18 µM
same,TGI,TK-10 renal,3.36 µM
same,TGI,U251 CNS,3.11 µM
same,TGI,UACC-257 melanoma,3.11 µM
same,TGI,UACC-62 melanoma,2.72 µM
same,TGI,UO-31 renal,2.88 µM
CCN(CC)C(=O)c1ccc(C)c(N=NN(C)C)c1,TGI,786-0 renal,> 100 µM
same,TGI,A549 NSCLC,> 100 µM
same,TGI,ACHN renal,> 100 µM
same,TGI,CAKI-1 renal,> 100 µM
same,TGI,DLD-1 colon,> 100 µM
same,TGI,DMS 273 small cell lung,> 100 µM
same,TGI,EKVX NSCLC,> 100 µM
same,TGI,HCC-2998 colon,> 100 µM
same,TGI,HCT-116 colon,> 100 µM
same,TGI,HCT-15 colon,> 100 µM
same,TGI,HOP-62 NSCLC,> 100 µM
same,TGI,HOP-92 NSCLC,> 100 µM
same,TGI,HT29 colon,> 100 µM
same,TGI,IGROV1 ovarian,> 100 µM
same,TGI,KM12 colon,> 100 µM
same,TGI,LOX IMVI melanoma,> 100 µM
same,TGI,LXFL 529 NSCLC,> 100 µM
same,TGI,M14 melanoma,> 100 µM
same,TGI,M19-MEL melanoma,> 100 µM
same,TGI,NCI-H23 lung,> 100 µM
same,TGI,NCI-H460 lung,> 100 µM
same,TGI,NCI-H522 lung,> 100 µM
same,TGI,OVCAR-3 ovarian,> 100 µM
same,TGI,OVCAR-4 ovarian,> 100 µM
same,TGI,OVCAR-8 ovarian,> 100 µM
same,TGI,SF-268 CNS,> 100 µM
same,TGI,SF-295 CNS,> 100 µM
same,TGI,SF-539 CNS,> 100 µM
same,TGI,SK-MEL-2 melanoma,> 100 µM
same,TGI,SK-MEL-28 melanoma,> 100 µM
same,TGI,SK-MEL-5 melanoma,> 100 µM
same,TGI,SN12C renal,> 100 µM
same,TGI,SNB-19 CNS,> 100 µM
same,TGI,SW-620 colon,> 100 µM
same,TGI,TK-10 renal,> 100 µM
same,TGI,U251 CNS,> 100 µM
same,TGI,UACC-257 melanoma,> 100 µM
same,TGI,UACC-62 melanoma,> 100 µM
same,TGI,UO-31 renal,> 100 µM
